# Measured values from PMC6571673, “Cytostatic and Cytotoxic Natural Products against Cancer Cell Models” (Molecules, 2019).
# Experiments:
# SUP-B15 = assay: Annexin V/PI apoptosis flow cytometry assay; format: cell-based, human; conditions: SUP-B15, 24 h; 8 5 µM, 9 10 µM, 10 5 µM, 12 10 µM, 13 10 µM
# Protocol: (§1) The samples were probed with AnnexinV-FITC (Roche/Boehringer Mannheim, Indianapolis, IN, USA) according to the manufacturer’s instructions. KOPN-8 or SUB-P15 cells were plated (1.00 × 10^6 cells/plate) and incubated for 12 h and incubated at 37 °C. Then, cells were treated with compounds or controls for 24 h. Cells were stained with AnnexinV-FITC, PI and the staining profiles were determined with FACScan and Cell-Quest software. For cellular DNA content, the same cell treatment as above was performed. Then, cells were fixed in cold 75% ethanol, treated with RNase and then stained with PI solution (50 µg/mL). Cell cycle distribution was analyzed with the FACSCalibur analyzer (BD Biosciences, Franklin Lakes, NJ, USA) and Cell-Quest software. The percentage of DNA content at different phases of the cell cycle was analyzed with ModFit-software (version 5.0, Verity Software House, Topsham, ME, USA).
# KOPN-8 = assay: Annexin V/PI apoptosis flow cytometry assay; format: cell-based, human; conditions: KOPN-8, 24 h; 8 5 µM, 9 10 µM, 10 5 µM, 12 10 µM, 13 10 µM
# Protocol: as §1
# [1] = test system: de novo protein synthesis in MDA-MB-231; assay: EZClick in-cell-click de novo protein synthesis assay; format: cell-based, human; conditions: MDA-MB-231, 2 h exposure time
# Source text: Protein synthesis is essential in cell growth, proliferation, signaling, differentiation, and death. […] The assay includes a robust chemical method based on an alkyne containing o-propargyl-puromycin probe, which stops translation by forming covalent conjugates with nascent polypeptide chains. Truncated polypeptides are rapidly turned over by the proteasome and can be detected based on the subsequent click reaction with a fluorescent azide. To test whether these compounds (4–14) induced de novo protein synthesis inhibition, compounds were tested for a 2 h exposure time, under the same conditions as the known protein synthesis inhibitor cycloheximide (CHX) in MDA-MB-231 cell model following an in-cell-click de novo protein synthesis assay.
# Biovision’s EZClick™ protein synthesis monitoring assay kit (EZClick™ Global Protein Synthesis Assay Kit, Catalog # K715-100, Milpitas, CA, USA) was used according to manufacturer’s protocol. The assay was conducted in 8-well chambered coverslips (ibidi GmbH µ-slide # 80826, Martinsried, Germany). Cells were plated at 2 × 10^4 per well and incubated at 37 °C for 12 h. Then, the cells were treated with compounds for 1.5 h and processed and stained according to protocol (representative images shown in Figure 4). Protein synthesis activity is shown in red, DNA staining is shown in green. Cycloheximide (CHX) was used as a positive control and DMSO as the negative control. Images shown were taken with a Marianas CSU-X spinning disk confocal imaging system (3i, Denver, CO, USA) configured with a Zeiss Axio Observer microscope (Carl Zeiss Inc., Thornwood, NY, USA) with diode lasers, at 63× magnification and resolution of 512 × 512 pixels (3i). For each field of view, an image stack consisting of 20 optical sections were taken at 63× magnification. The total intensity of red and green staining was quantified for the entire image stack. Six fields of view were analyzed per condition. Images shown represent a single optical section for each field of view. For each stack, the red intensity (protein synthesis) was adjusted to the green intensity (DNA content) in each image. The numbers from six images were used to calculate the average and standard deviation for each condition. Numbers were normalized to the negative control value arbitrarily set to one. The Slide viewer 6 software package was used for rendering and analysis of the images.
# SUM149 = assay: Propidium iodide (PI) assay, 48 h; conditions: SUM149, 48 h, 3 µM
# Protocol: The first step was to evaluate if the compounds display cytotoxicity against the adherent cells. Propidium iodide (PI) assay was performed for the drug resistant solid tumor cellular models (triple negative breast cancer models: SUM149 and MDA-MB-231) for 48 h (Figure 5) [30, 31].
compound,measurement,setting,value
"COC1=C[C@]23CCCN2CCc2cc4c(cc2[C@@H]3[C@@H]1O)OCO4 [Compound 9, cephalotaxine]","live cells (Annexin-, PI-)",SUP-B15,small decrease in live cells
same,"live cells (Annexin-, PI-)",KOPN-8,small decrease in live cells
same,concentration at which de novo protein synthesis is inhibited,[1],10 µM
same,reduction of cell viability,SUM149,50%
